The target in assay [1] is T1, Pancreatic CCK Receptor (Rattus norvegicus, UniProt P30551).
T1 construct: the pancreas or cerebral was removed and homogenized; from tissue; host or cells: pancreas of male Sprague-Dawley rats, membrane preparation
T1 sequence (P30551 1-444): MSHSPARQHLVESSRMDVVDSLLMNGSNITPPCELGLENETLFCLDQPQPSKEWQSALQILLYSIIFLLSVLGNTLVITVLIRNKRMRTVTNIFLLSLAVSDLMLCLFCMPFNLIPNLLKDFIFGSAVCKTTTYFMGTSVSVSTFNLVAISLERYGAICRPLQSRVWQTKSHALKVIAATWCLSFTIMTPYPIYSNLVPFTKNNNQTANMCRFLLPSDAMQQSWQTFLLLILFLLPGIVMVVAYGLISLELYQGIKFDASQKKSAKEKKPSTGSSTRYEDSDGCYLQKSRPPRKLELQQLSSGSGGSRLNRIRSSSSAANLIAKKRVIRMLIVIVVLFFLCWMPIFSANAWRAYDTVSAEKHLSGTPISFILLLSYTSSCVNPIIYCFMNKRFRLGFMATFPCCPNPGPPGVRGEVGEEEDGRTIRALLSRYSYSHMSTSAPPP
The assay can be described thus: [125I]CCK8 binding assay, pancreatic membranes. Further details: species or system Sprague-Dawley rats. Conditions: [125I]CCK8 0.05 nM, rat pancreas membranes, 90 min, 25° C. Here is the method: Inhibition studies of CCK by specific compounds of the present invention were carried out as follows. Male, Sprague-Dawley rats were sacrificed by decapitation and the pancreas or cerebral was removed and homogenized with a Brinkman Polytron (setting 6, 15 sec). The homogenates were centrifuged twice at 39,000 g for 10 min (4° C.), with an intermediate resuspension in fresh buffer. The final pellets were resuspended in the following buffer for the [^125 I]CCK8 binding assay: 10 mM HEPES, 118 mM NaCL, 4.7 mM KCl, and 5 mM MgCL2, 1 mM EGTA, 5 mg/ml bovine serum albumin, and 0.25 mg/ml bacitracin.
For the [^125 I]CCK8 binding assay, aliquots of the membrane preparations were added to plastic culture tubes containing 0.05 nM [^125 I]CCK8 (2200 Ci/mmol, New England Nulclear Corp ) and various concentrations of the test compounds in a final volume of 0.5 ml. The incubation period was 90 min (25° C.). The binding reaction was terminated by the addition of 4 ml of ice-cold buffer, followed by filtration through Whatman GF/B filters which had been previously soaked in 2% bovine serum albumin. Each tube and filter were then washed three times with 4-ml aliquots of ice-cold buffer. The radioactivity trapped on the filters was counted in an LKB Clini Gamma counter. Specific binding was defined as the total [^125 I]CCK8 bound minus that bound in the presence of 1 μM unlabeled CCK8.
Table 1 sets forth data from inhibition studies of CCK by specific compounds of the present invention in which Ar, m, and A are defined as set forth below: […]

Assay [2] has as its system gastric emptying. The assay can be described thus: anti-spasmodic activity: effect on gastric emptying (charcoal meal) after CCK-8 in mice. It is filed as in vivo, CF1 mice. Conditions: for ED50: Mus musculus, anti-spasmodic activity. Here is the method: In vivo studies were made to test the therapeutic effect of α-N-(2-indolylcarbonyl) L-tryptyl-N'-phenylethylglycine (BIM-18216),α-N-(3-quinolylcarbonyl)-L-tryptyl-N'-phenylethylglycine (BIM-18225), α-N-(2-naphthylcarbonyl)-L-tryptyl-N'-phenylethylglycine (BIM-18226), and α-N-(2-indolylcarbonyl) D-tryptyl-N'-phenylethylglycine (BIM-18227). The effect of the foregoing compounds on gastric emptying was measured as the percentage of anti-spasmodic activity. Tests were carried out on female CF1 mice as follows. Mice weighing approximately 20 g were fasted overnight. Test compounds were administered in one of four ways: intraperitoneally (i.p.), subcutaneously (s.c.), intravenously (i.v.), or orally (p.o.). Test compounds administered orally were dissolved in a mixture of 75% by volume polyethylene glycol 400 NF, 15% by volume propylene glycol USP, and 10% by volume purified H2 O USP. For other methods of administration, the test compounds were dissolved in a solution of saline containing 10% DMSO (by volume) for i.v. administration; and in a solution of saline containing 10% DMSO (by volume) and 0.25% methylcellulose (by weight) for s.c. or i.p. administration. Test compounds were administered to the mice 15 minutes prior to administering CCK-8 (40 μg/kg, s.c.). The mice were fed a charcoal meal orally 5 minutes after CCK injection and the animals were sacrificed 5 minutes later. The lengths of the intestines filled with charcoal were measured and the % of anti-spasmodic activity was calculated based upon the lengths according to the following formula: [formula]
Table 2, below, contains data on the anti-spasmodic activity of the compounds tested by oral administration.
Table 3, below, contains data for the test compound BIM-18216 administered in each of the four different ways discussed above.

[3] abbreviates: Table 2, 125 mg/kg p.o., 15 min before CCK-8 (40 μg/kg, s.c.), 125 mg/kg.
Where [4] appears, read: Table 2, 125 mg/kg p.o., 15 min before CCK-8 (40 μg/kg, s.c.).
Where [5] appears, read: Table 2, 100 mg/kg p.o., 15 min before CCK-8 (40 μg/kg, s.c.).

Structures are written as SMILES. pIC50: −log10 of the molar value.

Broadly, the pIC50 is −log10 of the IC50, conventionally taken in molar units. On to `O=C(O)CN(CCc1ccccc1)C(=O)C(Cc1c[nH]c2ccccc12)NC(=O)c1ccc2ccccc2n1` [2-quinolyl, α-N-(2 quinolylcarbonyl) L-tryptyl-N'-phenylethylglycine], for which the pIC50 in assay [1] is 6.77.
Usually ED50 stands for the dose that gives a 50% effect, or the effect in half of the subjects. A high value points to weaker potency. Consider `O=C(O)CN(CCc1ccccc1)C(=O)C(Cc1c[nH]c2ccccc12)NC(=O)c1cc2ccccc2[nH]1` [BIM-18216, α-N-(2-indolylcarbonyl) L-tryptyl-N'-phenylethylglycine], for which the ED50 in assay [2] (ip) turned out to be 5.8 mg/kg; in assay [2] (iv) it was 6.6 mg/kg; in assay [2] (po) it was 96.7 mg/kg; in assay [2] (sc), 4.5 mg/kg. The “% Anti-Spasmodic Activity” value in assay [2] (setting [3]) was 78%; in assay [2] (Table 3, 1 mg/kg i.p., 15 min before CCK-8), 1%; in assay [2] (Table 3, 1 mg/kg s.c., 15 min before CCK-8) it was 1%; in assay [2] (Table 3, 5 mg/kg i.p., 15 min before CCK-8), 45%; in assay [2] (Table 3, 5 mg/kg i.v., 15 min before CCK-8), 36%; in assay [2] (Table 3, 5 mg/kg s.c., 15 min before CCK-8), 53%. In addition, the “% Anti-Spasmodic Activity” value was 70% in assay [2] (Table 3, 10 mg/kg i.v., 15 min before CCK-8); 75% in assay [2] (Table 3, 10 mg/kg s.c., 15 min before CCK-8); 91% in assay [2] (Table 3, 25 mg/kg i.p., 15 min before CCK-8); 123% in assay [2] (Table 3, 25 mg/kg i.v., 15 min before CCK-8); 108% in assay [2] (Table 3, 25 mg/kg s.c., 15 min before CCK-8); 10% in assay [2] (Table 3, 50 mg/kg p.o., 15 min before CCK-8). The “% Anti-Spasmodic Activity” value in assay [2] (Table 3, 50 mg/kg s.c., 15 min before CCK-8) is reported as 112%; in assay [2] (Table 3, 75 mg/kg p.o., 15 min before CCK-8) it was 47%; in assay [2] (Table 3, 100 mg/kg p.o., 15 min before CCK-8), 56%; in assay [2] (Table 3, 125 mg/kg p.o., 15 min before CCK-8) it was 81%; in assay [2] (Table 3, 250 mg/kg p.o., 15 min before CCK-8), 88%; in assay [2] (Table 3, 500 mg/kg p.o., 15 min before CCK-8), 105%.
For the molecule `O=C(O)CN(CCc1ccccc1)C(=O)C(Cc1c[nH]c2ccccc12)NC(=O)c1cnc2ccccc2c1` [BIM-18225, α-N-(3-quinolylcarbonyl)-L-tryptyl-N'-phenylethylglycine], the “% Anti-Spasmodic Activity” value in assay [2] (setting [4]) worked out at 22%.
On to `O=C(O)CN(CCc1ccccc1)C(=O)C(Cc1c[nH]c2ccccc12)NC(=O)c1ccc2ccccc2c1` [BIM-18226, α-N-(2-naphthylcarbonyl)-L-tryptyl-N'-phenylethylglycine], for which the “% Anti-Spasmodic Activity” value in assay [2] (setting [5]) was 35%; in assay [2] (setting [4]) it was 88%. The pIC50 in assay [1] was 6.30.
On to `O=C(O)CN(CCc1ccccc1)C(=O)C(Cc1c[nH]c2ccccc12)NC(=O)c1cc2ccccc2[nH]1` [BIM-18227, α-N-(2-indolylcarbonyl) D-tryptyl-N'-phenylethylglycine], for which the figures for the “% Anti-Spasmodic Activity” value in assay [2] (setting [5]) and in assay [2] (setting [3]) were 24% and 60%, respectively. The pIC50 in assay [1] was 7.52.

(Values after patent publication US5010089A, “CCK antagonists and their use in treating gastrointestinal disorders” (Biomeasure, Inc., priority 1989, dated 1991).)
